Test results as given in ChEMBL document CHEMBL1177737, “Bioactive 1,4-dihydroxy-5-phenyl-2-pyridinone alkaloids from Septoria pistaciarum” (J Nat Prod, 2010).
In brackets after ≈: the same amount, converted by molar mass. Activity calls are given as the source filed them. No cut-off for these calls is given here.

How the values were obtained:
Plasmodium falciparum [1] = assay: Antiplasmodial activity against chloroquine-sensitive Plasmodium falciparum D6 after 72 hrs by LDH assay; type: functional, organism-based
Plasmodium falciparum [2] = assay: Antiplasmodial activity against chloroquine-resistant Plasmodium falciparum W2 after 72 hrs by LDH assay; type: functional, organism-based
Vero [3] = assay: Cytotoxicity against african green monkey Vero cell after 48 hrs by Neutral Red dye; type: cell-based, Chlorocebus sabaeus
Staphylococcus aureus [4] = assay: Antimicrobial activity against Staphylococcus aureus ATCC 29213 by CLSI method; type: functional, organism-based
Staphylococcus aureus [5] = assay: Antimicrobial activity against methicillin-resistant Staphylococcus aureus ATCC 33591 by CLSI method; type: functional, organism-based
Candida albicans [6] = assay: Antimicrobial activity against Candida albicans ATCC 90028 at 20 ug/ml by CLSI method; type: functional, organism-based
Aspergillus fumigatus [7] = assay: Antimicrobial activity against Aspergillus fumigatus ATCC 90906 at 20 ug/ml by CLSI method; type: functional, organism-based
SK-MEL [8] = assay: Cytotoxicity against human SK-MEL cells at 10 ug/ml after 48 hrs by Neutral Red dye; type: functional, cell-based
KB [9] = assay: Cytotoxicity against human KB cells at 10 ug/ml after 48 hrs by Neutral Red dye; type: functional, cell-based
BT-549 [10] = assay: Cytotoxicity against human BT549 cells at 10 ug/ml after 48 hrs by Neutral Red dye; type: functional, cell-based
SK-OV-3 [11] = assay: Cytotoxicity against human SKOV3 cells at 10 ug/ml after 48 hrs by Neutral Red dye; type: functional, cell-based
[12] = Cytotoxicity against pig LLC-PK11 cells at 10 ug/ml after 48 hrs by Neutral Red dye; type: cell-based, Sus scrofa
Vero [13] = assay: Cytotoxicity against african green monkey Vero cell at 10 ug/ml after 48 hrs by Neutral Red dye; type: cell-based, Chlorocebus sabaeus
Candida albicans [14] = assay: Antimicrobial activity against Candida albicans ATCC 90028 by CLSI method; type: functional, organism-based
Aspergillus fumigatus [15] = assay: Antimicrobial activity against Aspergillus fumigatus ATCC 90906 by CLSI method; type: functional, organism-based
KB [16] = assay: Cytotoxicity against human KB cells after 48 hrs by Neutral Red dye; type: functional, cell-based
BT-549 [17] = assay: Cytotoxicity against human BT549 cells after 48 hrs by Neutral Red dye; type: functional, cell-based; details: BT-549, 48 h
SK-OV-3 [18] = assay: Cytotoxicity against human SKOV3 cells after 48 hrs by Neutral Red dye; type: functional, cell-based; details: SK-OV-3, 48 h
[19] = Selectivity index, ratio of IC50 for african green monkey (Cercopithecus aethiops) Vero cells to IC50 for chloroquine-sensitive Plasmodium falciparum D6; type: toxicity, cell-based; details: read-out: Ratio IC50
[20] = Selectivity index, ratio of IC50 for african green monkey (Cercopithecus aethiops) Vero cells to IC50 for chloroquine-resistant Plasmodium falciparum W2; type: toxicity, cell-based; details: read-out: Ratio IC50
Staphylococcus aureus [21] = assay: Antimicrobial activity against Staphylococcus aureus ATCC 29213 at 20 ug/ml by CLSI method; type: functional, organism-based
Staphylococcus aureus [22] = assay: Antimicrobial activity against methicillin-resistant Staphylococcus aureus ATCC 33591 at 20 ug/ml by CLSI method; type: functional, organism-based
SK-MEL [23] = assay: Cytotoxicity against human SK-MEL cells after 48 hrs by Neutral Red dye; type: functional, cell-based
[24] = Cytotoxicity against pig LLC-PK11 cells after 48 hrs by Neutral Red dye; type: cell-based; details: Sus scrofa, LLC-PK11, 48 h
[25] = Chlorocebus sabaeus, Vero, 48 h, read-out: IC50

For `CC[C@@H](C)[C@H]1O[C@@H](c2c(O)c(-c3ccccc3)cn(OC)c2=O)[C@H](C)C[C@@H]1C`, the IC50 (Plasmodium falciparum [1]) was “Not Active”, the IC50 (Plasmodium falciparum [2]) was “Not Active” and the IC50 (Vero [3]; vero) was “Non-toxic”. It also gave an MIC (Staphylococcus aureus [4]; Staphylococcus aureus, ATCC 29213) of 5 µg/mL (≈ 13 µM), an IC50 (Staphylococcus aureus [4]; Staphylococcus aureus, ATCC 29213, read-out: IC50) of 2.79 µg/mL (≈ 7.24 µM) and an IC50 (Staphylococcus aureus [5]) of 2.99 µg/mL (≈ 7.76 µM). The MIC (Staphylococcus aureus [5]) was 5 µg/mL (≈ 13 µM), the IC50 (Candida albicans [6]) was “Not Active” and the MIC (Candida albicans [6]) was “inactive”. For the same compound, the IC50 (Aspergillus fumigatus [7]) was “Not Active”, the MIC (Aspergillus fumigatus [7]) was “inactive” and the IC50 (SK-MEL [8]) was “Not Active”. For the same compound, the IC50 (KB [9]) was “Not Active”, the IC50 (BT-549 [10]) was “Not Active” and the IC50 (SK-OV-3 [11]) was “Not Active”. The IC50 [12] was “Not Active” and the IC50 (Vero [13]) was “Not Active”.
With `COn1cc(-c2ccccc2)c(O)c([C@@H]2O[C@H]([C@H](C)CCO)[C@@H](C)C[C@H]2C)c1=O` the IC50 (Plasmodium falciparum [1]) was “Not Active”, the IC50 (Plasmodium falciparum [2]) was “Not Active” and the IC50 (Vero [3]; vero) was “Non-toxic”.
With `COn1cc(-c2ccccc2)c(O)c([C@@H]2O[C@H]([C@H](C)CCOC(C)=O)[C@@H](C)C[C@H]2C)c1=O` the IC50 (Plasmodium falciparum [1]) was “Not Active”, the IC50 (Plasmodium falciparum [2]) was “Not Active” and the IC50 (Vero [3]; vero) was “Non-toxic”.
Compound `C[C@@H]1[C@H](O)[C@@H](C)/C=C/C=C/C=C/C=C/C=C/C=C/C=C/[C@H](O[C@@H]2O[C@H](C)[C@@H](O)[C@H](N)[C@@H]2O)C[C@@H]2O[C@](O)(C[C@@H](O)C[C@@H](O)[C@H](O)CC[C@@H](O)C[C@@H](O)CC(=O)O[C@H]1C)C[C@H](O)[C@H]2C(=O)O` [AMPHOTERICIN B] has an IC50 (Candida albicans [14]) of 0.42 µg/mL (≈ 0.455 µM), an MIC (Candida albicans [14]) of 2.5 µg/mL (≈ 2.71 µM) and an IC50 (Aspergillus fumigatus [15]) of 1.16 µg/mL (≈ 1.26 µM). It also gave an MIC (Aspergillus fumigatus [15]) of 2.5 µg/mL (≈ 2.71 µM).
For `C[C@@H]1CC[C@H]2[C@@H](C)C(=O)O[C@@H]3O[C@@]4(C)CC[C@@H]1[C@]32OO4` [ARTEMISININ], the IC50 (Vero [3]; vero) was “Non-toxic”.
For `CCN(CC)CCCC(C)Nc1ccnc2cc(Cl)ccc12` (centres undefined) [CHLOROQUINE], the IC50 (Vero [3]; vero) was “Non-toxic”.
`COc1cccc2c1C(=O)c1c(O)c3c(c(O)c1C2=O)C[C@@](O)(C(=O)CO)C[C@@H]3O[C@H]1C[C@H](N)[C@H](O)[C@H](C)O1` [DOXORUBICIN] showed an IC50 (Vero [3]; [25]) greater than 5 µg/mL, an IC50 (KB [16]) of 1.35 µg/mL (≈ 2.48 µM) and an IC50 (BT-549 [17]) of 0.8 µg/mL (≈ 1.47 µM). The IC50 (SK-OV-3 [18]) was 1.2 µg/mL (≈ 2.21 µM).
For `CC[C@@H](C)[C@H]1O[C@@H](c2c(O)c(-c3ccccc3)cn(O)c2=O)[C@H](C)C[C@@H]1C` [SEPTORIAMYCIN A], the IC50 (Vero [3]; [25]) was 1.3 µg/mL (≈ 3.5 µM), the selectivity ratio [19] was 3.9 and the selectivity ratio [20] was 6.5. For the same compound, the IC50 (Candida albicans [14]) was 12.1 µg/mL (≈ 32.5 µM), the IC50 (Aspergillus fumigatus [15]) was 8.76 µg/mL (≈ 23.6 µM) and the IC50 (Staphylococcus aureus [4]) was “Not Active”. The MIC (Staphylococcus aureus [4]) was “inactive”, the IC50 (Staphylococcus aureus [21]) was “Not Active” and the MIC (Staphylococcus aureus [21]) was “inactive”. For the same compound, the IC50 (Staphylococcus aureus [22]) was “Not Active”, the MIC (Staphylococcus aureus [22]) was “inactive” and the IC50 (SK-MEL [23]) was 1.5 µg/mL (≈ 4.04 µM). For the same compound, the IC50 (KB [16]) was 5 µg/mL (≈ 13.5 µM), the IC50 (BT-549 [17]) was 1.65 µg/mL (≈ 4.44 µM) and the IC50 (SK-OV-3 [18]) was 2.6 µg/mL (≈ 7 µM). It also gave an IC50 [24] of 1.65 µg/mL (≈ 4.44 µM).
